Reference: patent US7692030B2, “Conjugates of artemisinin-related endoperoxides and hydrazone derivatives for the treatment of cancer” (University of Washington, priority 2006, dated 2010)

Assays:
human leukemia cells = conditions: cited from earlier work
[1] = test system: DAOY medulloblastoma cells; assay: DAOY medulloblastoma cells, MTT assay and light microscopy; format: cell-based; conditions: after 24 h treatment; each treatment had holo-Tf (20 μg/well)
Experimental: The compound ART-Phe-Sal was tested on DAOY medulloblastoma cells using the MTT assay. DAOY Medulloblastoma cells (5,000 cells/200 μL) was seeded on a 96 well plate and incubated for 24 h at 37° C. Cell culture medium was removed after 24 h and 150 μL of medium with treatment was added. Each experimental treatment had holo-Tf (20 μg/well). Treatment assay was viewed under light microscope after 24 h.
Treatment medium was removed after 48 h, and 100 μL of cell medium was added. MTT Reagent (10 μL, 12 mM) was added to each well. This solution was incubated at 37° C. for 4 h. Isopropanol (100 μL) was added to each well to lyse the cells, which were then incubated at 4° C. for 30 m. After incubation each well was plunged (3×200 μL) to ensure the cells were lysed. The incubated medium with MTT reagent was then centrifuged at 13,000 RPM in an eppendorph centrifuge for 3 minutes at room temperature. 100 μL of supernatant was read in a plate reader at λ=570 nm. FIG. 13 compares the effect of dihydroartemisinin (DHA) and ART-Phe-Sal on DAOY medulloblastoma cell line. The concentration of holo-Tf was 1.7 μM.

Compound	therapeutic index (toxicity towards cancer cells versus normal cells) (human leukemia cells)	cell shrinkage under light microscope [1]
C[C@@H]1CC[C@H]2[C@@H](C)C(=O)O[C@@H]3O[C@@]4(C)CC[C@@H]1[C@]32OO4 [Artemisinin]	approximately 100	–
holo-Tf: Human holotransferrin (Sigma Chemicals), iron carrying protein added to the cells	–	Moderate cell shrinkage
